Earlier results in patent US20060188492A1, “Topical management of ocular and periocular conditions” (ChronoRX LLC, an Alaska Limited Liability Company, priority 2005, published 2006).

How the values were obtained:
lens = conditions: experimental evidence; compared with the R isomer
[1] = system: bovine aortic endothelial cells; conditions: LA added before endothelial exposure to AGE albumin
[2] = in the presence of glutathione (GSH)

O=C(O)CCCCC1CCSS1 (racemic) [racemic mixture, 1,2-dithiolane-3-pentanoic acid]
prevention of cataract development (lens): less than one-half as effective as the R isomer

O=C(O)CCCCC1CCSS1 (single isomer, unassigned) [S isomer, 1,2-dithiolane-3-pentanoic acid]
prevention of cataract development (lens): not effective

O=C(O)CCCCC1CCSS1 (centres unmarked) [LA, 1,2-dithiolane-3-pentanoic acid]
depletion of GSH and ascorbic acid [1]: completely prevents depletion of GSH and ascorbic acid

O=C(O)CCCCC1CCSS1 (stereo not drawn) [R stereoisomer of LA, 1,2-dithiolane-3-pentanoic acid]
prevention of cataract development (lens): can prevent cataract development

C[C@]12CC[C@@H]3c4ccc(O)cc4CC[C@H]3[C@@H]1CC[C@H]2O [estradiol, 17 α-estradiol]
increase of neuroprotective potency [2]: 400 fold
